According to patent US5523403A, “Tropone-substituted phenyloxazolidinone antibacterial agents” (The Upjohn Company, priority 1995, dated 1996):
≈ marks a conversion by molar mass, not a printed value.

What was measured:
[1] = system: Streptococcus pyogenes UC ® 152; assay: in vitro antibacterial activity, Minimum Inhibitory Concentration, Streptococcus pyogenes; details: for MIC: Streptococcus pyogenes, UC152, read-out: Minimum Inhibitory Concentration
[2] = system: Staphylococcus aureus UC ® 9213; assay: in vitro antibacterial activity, Minimum Inhibitory Concentration, Staphylococcus aureus; details: for MIC: Staphylococcus aureus, UC9213, read-out: Minimum Inhibitory Concentration

Row | SMILES | MIC [1] [µg/mL] | MIC [2] [µg/mL] | Minimum Inhibitory Concentration ([1]; in vitro, Streptococcus pyogenes UC ® 152) [µg/mL] | Minimum Inhibitory Concentration ([2]; in vitro, Staphylococcus aureus UC ® 9213) [µg/mL]
1 | COc1ccc(-c2ccc(N3CC(CNC(C)=O)OC3=O)cc2)ccc1=O (racemic) [Compound 1, (±)-N[[3-[4-(4-methoxy-5-oxo-,1,3,6-cycloheptatrien-yl)phenyl]-2-oxazolidinyl]methyl-acetamide] | 0.25 (≈ 0.679 µM) | 2 (≈ 5.43 µM) | – | –
2 | CCN(CC)c1ccc(-c2ccc(N3CC(CNC(C)=O)OC3=O)cc2)ccc1=O (racemic) [Compound 2, (±)-N[[3-[4-(4-diethylamino-5-oxo-1,3,6-cycloheptatrien-1-yl)phenyl]-2-oxo-5-oxazolidinyl]methyl]-acetamide] | 1 (≈ 2.44 µM) | 4 (≈ 9.77 µM) | – | –
3 | CC(=O)NCC1CN(c2ccc(-c3ccc(NCc4ccccc4)c(=O)cc3)cc2)C(=O)O1 (racemic) [Compound 3, (±)-Acetamide, N-[[2-oxo-3-[4-[5-oxo-4-[(phenylmethyl)amino]-1,3,6-cycloheptatrien-1-yl]phenyl]-5-oxazolidinyl]methyl]] | 4 (≈ 9.02 µM) | > 64 | – | –
4 | CC(=O)NCC1CN(c2ccc(-c3ccc(NCCO)c(=O)cc3)cc2)C(=O)O1 (racemic) [Compound 4, (±)-N-[[3-[4-[4-[(2-hydroxyethyl)amino]-5-oxo1,3,6-cycloheptatrien-1-yl]phenyl]-2oxo-5-oxazolidinyl]methyl-acetamide] | 0.5 (≈ 1.26 µM) | 4 (≈ 10.1 µM) | – | –
5 | CC(=O)NCC1CN(c2ccc(-c3ccc(N4CCOCC4)c(=O)cc3)cc2)C(=O)O1 (racemic) [Compound 5, (±)-N-[[3-[4-[4-(4-morpholino)-5-oxo1,3,6-cycloheptatrien-1-yl]phenyl]2oxo5-oxazolidinyl]methyl]-acetamide] | 0.5 (≈ 1.18 µM) | 2 (≈ 4.72 µM) | – | –
6 | CC(=O)NCC1CN(c2ccc(-c3ccc(NC4CC4)c(=O)cc3)cc2)C(=O)O1 (racemic) [Compound 6, (±)-N-[[3-[4-(4-cyclopropylamino-5-oxo-1,3,6-cycloheptatrien-1-yl)phenyl]-2-oxo-5-oxazolidinyl]methyl]-acetamide] | 0.5 (≈ 1.27 µM) | 2 (≈ 5.08 µM) | – | –
7 | CC(=O)NCC1CN(c2ccc(-c3ccc(N4CCN(C=O)CC4)c(=O)cc3)cc2)C(=O)O1 (racemic) [Compound 7, (±)-N-[[3-[4-[4-(4-formyl-1-piperazinyl)-5-oxo-1,3,6-cycloheptatrien-1-yl]phenyl]-2-oxo-5-oxazolidinyl]methyl]-acetamide] | 0.5 (≈ 1.11 µM) | 4 (≈ 8.88 µM) | – | –
8 | C=CCNc1ccc(-c2ccc(N3CC(CNC(C)=O)OC3=O)cc2)ccc1=O (racemic) [Compound 8, (±)-N-[[3-[4-[4-(2-propenylamino)5-oxo-1,3,6-cycloheptatrien-1-yl]phenyl]-2-oxo-5-oxazolidinyl]methyl]-acetamide] | 0.5 (≈ 1.27 µM) | 2 (≈ 5.08 µM) | – | –
9 | CC(=O)NCC1CN(c2ccc(-c3ccc(N4CCCC4)c(=O)cc3)cc2)C(=O)O1 (racemic) [Compound 9, (±)-N-[[3-[4-[4-(1-pyrrolidinyl)-5-oxo-1,3,6-cycloheptatrien-1-yl]]phenyl]-2-oxo-5-oxazolidinyl]methyl]-acetamide] | 1 (≈ 2.45 µM) | 4 (≈ 9.82 µM) | – | –
10 | CC(=O)NCC1CN(c2ccc(-c3ccc(N4CCN(C)CC4)c(=O)cc3)cc2)C(=O)O1 (racemic) [Compound 10, (±)-N-[[3-[4-[4-(4-methyl-1-piperazinyl)-5-oxo-1,3,6-cycloheptatrien-1-yl]phenyl]-2-oxo-5-oxazolidinyl]methyl]-acetamide] | 0.12 (≈ 0.275 µM) | 2 (≈ 4.58 µM) | – | –
11 | CC(=O)NCC1CN(c2ccc(-c3ccc(NC4CCCC4)c(=O)cc3)cc2)C(=O)O1 (racemic) [Compound 11, (±)-N-[[3-[4-(4-cyclopentylamino-5-oxo-1,3,6-cycloheptatrien-1-yl)phenyl]-2-oxo-5-oxazolidinyl]methyl]-acetamide] | 1 (≈ 2.37 µM) | 4 (≈ 9.49 µM) | – | –
12 | CC(=O)NCC1CN(c2ccc(-c3ccc(N4CCNCC4)c(=O)cc3)cc2)C(=O)O1 (racemic) [Compound 12, (±)-N-[[3-[4-[4-(1-piperazinyl)-5-oxo-1,3,6-cycloheptatrien-1-yl]phenyl]-2-oxo-5-oxazolidinyl]methyl]-acetamide] | 0.25 (≈ 0.592 µM) | 8 (≈ 18.9 µM) | – | –
13 | CCCCNc1ccc(-c2ccc(N3CC(CNC(C)=O)OC3=O)cc2)ccc1=O (racemic) [Compound 13, (±)-N-[[3-[4-(4-butylamino-5-oxo-1,3,6-cycloheptatrien-1-yl)phenyl]-2-oxo-5-oxazolidinyl]methyl]-acetamide] | 0.5 (≈ 1.22 µM) | 2 (≈ 4.88 µM) | – | –
14 | CC(=O)NCC1CN(c2ccc(-c3ccc(N4C[C@@H](C)N[C@@H](C)C4)c(=O)cc3)cc2)C(=O)O1 (mixture of isomers) [Compound 14, (±)-N-[[3-[4-[4-(cis-3,5-dimethyl-1-piperazinyl)-5-oxo-1,3,6-cycloheptatrien-1-yl]phenyl]-2-oxo5-oxazolidinyl]methyl]-acetamide] | 0.5 (≈ 1.11 µM) | 8 (≈ 17.8 µM) | – | –
15 | CC(=O)NCC1CN(c2ccc(-c3ccc(N4CCCCC4)c(=O)cc3)cc2)C(=O)O1 (racemic) [Compound 15, (±)-N-[[3-[4-[4-(1-piperidinyl)-5-oxo-1,3,6-cycloheptatrien-1-yl]phenyl]-2-oxo-5-oxazolidinyl]methyl]-acetamide] | 1 (≈ 2.37 µM) | 2 (≈ 4.74 µM) | – | –
16 | COc1ccc(-c2ccc(N3CC(CNC(C)=O)OC3=O)cc2F)ccc1=O (racemic) [Compound 16, (±)-N-[[3-[3-fluoro-4-(4-methoxy-5-oxo-1,3,6-cycloheptatrien-1-yl)phenyl]-2-oxo-5-oxazolidinyl]methyl]-acetamide] | 0.25 (≈ 0.647 µM) | 1 (≈ 2.59 µM) | – | –
17 | CC(=O)NCC1CN(c2ccc(-c3ccc(N4CCNC(C)C4)c(=O)cc3)cc2)C(=O)O1 (racemic) [Compound 17, (±)-N-[[3-[4-[4-(3-methyl-1-piperazinyl)-5-oxo-1,3,6-cycloheptatrien-1-yl]phenyl]2-oxo-5-oxazolidinyl]methyl]-acetamide] | 0.25 (≈ 0.573 µM) | 8 (≈ 18.3 µM) | – | –
18 | CC(=O)NCC1CN(c2ccc(-c3ccc(N4CCC(O)C4)c(=O)cc3)cc2)C(=O)O1 (racemic) [Compound 18, (±)-N-[[3-[4-[4-(3-hydroxy-1-pyrrolidinyl)-5-oxo-1,3,6-cycloheptatrien-1-yl]phenyl]-2-oxo-5oxazolidinyl]methyl]-acetamide] | 1 (≈ 2.36 µM) | 4 (≈ 9.45 µM) | – | –
19 | COC(=O)CNc1ccc(-c2ccc(N3CC(CNC(C)=O)OC3=O)cc2)ccc1=O (racemic) [Compound 30, (±)-N-[[3-[4-[-[[(methoxycarbonyl)methyl]amino]-5-oxo-1,3,6cycloheptatrien-1-yl]phenyl]-2-oxo-5-oxazolidinyl]methyl]-acetamide] | – | – | 1 | 4

The next lines start with results.

Row | MIC [1] [µg/mL] | MIC [2] [µg/mL] | SMILES | Minimum Inhibitory Concentration ([1]; in vitro, Streptococcus pyogenes UC ® 152) [µg/mL] | Minimum Inhibitory Concentration ([2]; in vitro, Staphylococcus aureus UC ® 9213) [µg/mL]
20 | 0.5 (≈ 1.36 µM) | 4 (≈ 10.9 µM) | COc1cccc(-c2ccc(N3CC(CNC(C)=O)OC3=O)cc2)cc1=O (racemic) [Compound 20, (±)-N-[[3-[4-[4-methoxy-3-oxo-1,4,6-cycloheptatrien-1-yl)phenyl]-2-oxo-5-oxazolidinyl]methyl]-acetamide] | – | –
21 | 8 (≈ 21.7 µM) | 64 (≈ 174 µM) | COc1cc(-c2ccc(N3CC(CNC(C)=O)OC3=O)cc2)cccc1=O (racemic) [Compound 21, (±)-N-[[3-[4-(6-methoxy-5-oxo-1,3,6-cycloheptatrien-1-yl]phenyl]-2-oxo5-oxazolidinyl]methyl]-acetamide] | – | –
22 | 0.5 (≈ 1.31 µM) | 4 (≈ 10.5 µM) | CCOc1ccc(-c2ccc(N3CC(CNC(C)=O)OC3=O)cc2)ccc1=O (racemic) [Compound 22, (±)-N-[[3-[4-(4-ethoxy-5-oxo-1,3,6-cycloheptatrien-1-yl]phenyl]-2-oxo5-oxazolidinyl]methyl]-acetamide] | – | –
23 | 1 (≈ 2.52 µM) | 4 (≈ 10.1 µM) | CC(=O)NCC1CN(c2ccc(-c3ccc(OC(C)C)c(=O)cc3)cc2)C(=O)O1 (racemic) [Compound 24, (±)-N[[3-[4-[4-(1-methylethoxy)-5-oxo-1,3,6-cycloheptatrien-1-yl]phenyl]-2-oxo-5-oxazolidinyl]methyl]-acetamide] | – | –
24 | 1 (≈ 2.54 µM) | 2 (≈ 5.08 µM) | C=CCNc1cccc(-c2ccc(N3CC(CNC(C)=O)OC3=O)cc2)cc1=O (racemic) [Compound 26, (±)-N[[3-[4-[4-(2-propenylamino)-3-oxo1,4,6-cycloheptatrien-1-yl]phenyl-2oxo-5-oxazolidinyl]methyl]-acetamide] | – | –
25 | 1 (≈ 2.36 µM) | 4 (≈ 9.45 µM) | CC(=O)NCC1CN(c2ccc(-c3cccc(N4CCOCC4)c(=O)c3)cc2)C(=O)O1 (racemic) [Compound 27, (±)-N-[]3-[4-4-(4-morpholinyl)-3-oxo-1,4,6-cycloheptatrien-1-yl]phenyl]-2-oxo-5-oxazolidinyl]methyl]-acetamide] | – | –
26 | 0.5 (≈ 1.28 µM) | 2 (≈ 5.11 µM) | C#CCNc1cccc(-c2ccc(N3CC(CNC(C)=O)OC3=O)cc2)cc1=O (racemic) [Compound 29, (±)-N-[[3-[4-[4-(2-pyopynylamino)-3-oxo-1,4,6-cycloheptatrien-1-yl)phenyl]2-oxo-5-oxazolidinyl]methyl-acetamide] | – | –
27 | 0.25 (≈ 0.68 µM) | 2 (≈ 5.44 µM) | CNc1ccc(-c2ccc(N3CC(CNC(C)=O)OC3=O)cc2)ccc1=O (racemic) [Compound 31, (±)-N-[[3-[4-(4-methylamino--5-oxo1,3,6-cyclopheptatrien1-yl)phenyl]2-oxo-5-oxazolidinyl]methyl]-acetamide] | – | –
28 | 4 (≈ 9.87 µM) | 32 (≈ 78.9 µM) | CC(=O)NCC1CN(c2ccc(-c3ccc(N4CC=CC4)c(=O)cc3)cc2)C(=O)O1 (racemic) [Compound 32, (±)-N-[[3-[4-[4-(2,5dihydro-1H--pyrrol-1-yl)-5-oxo-1,3,6-cycloheptatrien-1-yl]phenyl]-2-oxo-5-oxazolidinyl]methyl]-acetamide] | – | –
29 | 1 (≈ 2.54 µM) | 4 (≈ 10.1 µM) | C=CCOc1ccc(-c2ccc(N3CC(CNC(C)=O)OC3=O)cc2)ccc1=O (racemic) [Compound 33, (±)-N-[[3-[4-[4-(2-propenyloxy)5-oxo-1,3,6-cycloheptatrien-1-yl]phenyl]-2-oxo-5-oxazolidinyl)methyl]-acetamide] | – | –
30 | – | 1 (≈ 2.71 µM) | COc1ccc(-c2ccc(N3C[C@H](CNC(C)=O)OC3=O)cc2)ccc1=O [Compound 28, (S)-N-[[3-[4-methoxy-5-oxo-1,3,6-cycloheptatrien-yl)phenyl-2-oxo-5-oxazolidinyl)methyl]-acetamide] | – | –
